The source of these data is patent US6355811B1, “Polyoxypropylenepolyethylene vitamin E and preparation thereof” (priority 1998, dated 2002).

The nature of series [1]: Anti-oxidation activity: peroxide value of linoleic acid with added sample. To be noted: sample 0.5% in linoleic acid, stored at 40° C. The protocol:
An examination was made of the anti-oxidation activity of the polyoxypropylenepolyoxyethylene vitamin E, using linoleic acid. The linoleic acid used was a reagent purchased from Sigma, U.S.A., comprising linoleic acid 75% and linolenic acid 12.5%.
The polyoxypropylenepolyoxyethylene vitamin E(1) prepared in Example I was added at an amount of 0.5% in the linoleic acid while vitamin E, vitamin E acetate, polyoxyethylene (12EO) vitamin E, polyoxyethylene (20EO) sorbitan monostearate (TWEEN-60), and polyoxyethylene (12EO) nonylphenylether (Igepal-CO880) were also used as references. These samples were stored in an incubator maintained at 40° C. At two days and ten days after the incubation, a peroxide value was determined for each sample. In detail, in a 250 ml Erlenmeyer flask was placed 1.0 g of each of the samples, and 10 ml of chloroform were added to dissolve the sample, after which 15 ml of glacial acetic acid and 1 ml of saturated potassium iodide solution were added and a stopper was put in the flask. After being vigorously shaken, the flask was allowed to stand in a dark place for 5 min. Thereafter, the flask was added with 75 ml of distilled water and vigorously shaken. Free iodine was titrated with a 0.01 N sodium thiosulfate solution, using a starch solution as an indicator. The point at which the solution became colorless was regarded as the end point. The peroxide value was calculated as follows: [formula]
S: Amount of 0.01 N sodium thiosulfate solution consumed by sample (ml)
B: Amount of 0.01 N sodium thiosulfate solution consumed in blank test tube (ml)
F: Factor of 0.01 N sodium thiosulfate solution

The subject of another series is rabbits. In words: Primary eye irritation test according to Draize. It is filed as in vivo. The protocol:
In order to evaluate the safety of the novel polyoxypropylenepolyoxyethylene vitamin E, a primary eye irritation test was conducted on rabbits as taught by Draize. The polyoxypropylenepolyoxyethylene vitamin E (5) prepared in Example V, polyoxyethylene (12EO) nonylphenylether and polyoxyethylene (20EO) sorbitan monostearate each was diluted with a 10% aqueous glycerine solution to give a 10% sample solution. This test sample was dropped onto one eye of each of 6 rabbits weighing 2-3 kg while the other eye was used as a control. 24 hours later, the average scores were recorded according to the Draize scoring for ocular lesions. If lesions were present, the time was extended; otherwise, observation was ceased.

The subject of another series is human body. In words: Patch test, Finn Chamber method. It is filed as in vivo. To be noted: human brachium, ICDRG standard. The procedure: In order to confirm non-toxicity of the polyoxypropylenepolyoxyethylene vitamin E according to the present invention, a patch test was conducted on the human body according to the Finn Chamber method. The subjects of this test were all females 15-35 years old. A sample material was dropped onto the brachium of each of the subjects and a dermicel tape was bonded thereto. The skin irritations were evaluated as a response rate (%) according to an International Contact Dermatitis Research Group (ICDRG) standard after 24 or 48 hour.

A short description of series [2]: Surface tension by the du Nuoy method. Type of series: physicochemical. To be noted: 0.1% aqueous solution, 20° C. The protocol:
At 20° C., 0.1% solutions of samples in water were measured for surface tension according to the du Nuoy method with the aid of a surface tension balance manufactured by Fisher Scientific.

A short description of series [3]: Foaming ability and foam stability, dynamic foam test. It is filed as physicochemical. As to conditions: 20° C.; for Foam Stability: 0.1% solution in water, foam at three minutes after stirring; for Foaming Ability: 0.1% solution in water, 1,000 rpm, 1 min. The protocol: The foaming ability and foam stability were determined according to a dynamic foam test. First, in a 2 L scaled cylinder with an inner diameter of 10 cm were charged 40 ml of a 0.1% solution of each sample in water and the solution was stirred at 1,000 rpm 20° C. for 1 min with an agimixer. The height of the foam layer thus formed was regarded as foaming ability while the ratio of the volume of the foam layer formed immediately after the stirring to the same maintained at three minutes after the stirring, was denoted as foam stability.

As to `CC(=O)Oc1c(C)c(C)c2c(c1C)CCC(C)(CCC[C@H](C)CCC[C@H](C)CCCC(C)C)O2` (stereo partly shown) [Acetate of vitamin E, vitamin E acetate], in series [1], the “Peroxide Values After 2 days” value worked out at 27.2 and the “Peroxide Values After 10 days” value was determined as 123.3.
“polyoxyethylene (12EO) nonylphenylether [12EO nonylphenylether]”: in the series on rabbits (rabbit, in vivo), the “Eye irritation, Avg. Values (Draize scoring for ocular lesions)” value (“Eye irritation, Avg. Values” for short) came to 0.35. Moreover, in series [1], the “Peroxide Values After 2 days” value amounted to 28.9 and the “Peroxide Values After 10 days” value was determined as 178.5. Further, in the series with human body, the “Response Rate, 24 h” value is given as 2.4% and the “Response Rate, 48 h” value is 2.0%.
For the molecule “polyoxyethylene (12EO) vitamin E [12EO vitamin E]”, the “Eye irritation, Avg. Values” value in the series with rabbits (rabbit, in vivo) worked out at 0.19. The “Surface Tension” value in series [2] came to 56.3 dyne/cm. Further, in series [1], the “Peroxide Values After 2 days” value came out at 26.0 and the “Peroxide Values After 10 days” value came out at 124.6. For the same molecule, in the series with human body, the “Response Rate, 24 h” value was 1.6% and the “Response Rate, 48 h” value was found to be 0.8%. Further, in series [3], the “Foam Stability” value is recorded as 46.5% and the “Foaming Ability” value was 125 cc.
In the case of “polyoxyethylene (20EO) sorbitan monostearate [20EO sorbitan mono stearate]”, the “Eye irritation, Avg. Values” value with rabbits (10% sample solution in 10% aqueous glycerine, rabbit eye, 24 hours) is listed as 0.16. In series [1], the “Peroxide Values After 2 days” value turned out to be 25.0 and the “Peroxide Values After 10 days” value was determined as 126.6. Also, in the series with human body, the “Response Rate, 24 h” value amounted to 0.6% and the “Response Rate, 48 h” value amounted to 0.0%.
For the molecule “polyoxyethylene (24EO) cholesterol [24 EO Cholesterol]”, in series [2], the “Surface Tension” value was determined as 38.4 dyne/cm. Besides, in series [3], the “Foam Stability” value is recorded as 89.6% and the “Foaming Ability” value came out at 246 cc.
With vitamin E, in series [1], the “Peroxide Values After 2 days” value was 21.6 and the “Peroxide Values After 10 days” value stood at 58.9.
